The values that follow come from the PolyMetriX glass transition set.

With `*C(=O)Nc1c(C)cc(Cc2cc(C)c(NC(=O)c3ccc4c(c3)C(=O)N(c3ccc(/N=N/c5ccc(F)cc5)c(N5C(=O)c6ccc(*)cc6C5=O)c3)C4=O)c(C)c2)cc1C` (repeat unit), the glass transition temperature was determined as 279.00 °C. The figure for `*C(=O)Nc1c(CC)cc(Cc2cc(CC)c(NC(=O)c3ccc4c(c3)C(=O)N(c3ccc(/N=N/c5ccc(C)cc5)c(N5C(=O)c6ccc(*)cc6C5=O)c3)C4=O)c(CC)c2)cc1CC` (repeat unit) is 269.00 °C; for `*C(=O)OCCN(CCOC(=O)c1ccc2c(c1)C(=O)N(c1c(C)cc(Cc3cc(C)c(N4C(=O)c5ccc(*)cc5C4=O)c(C)c3)cc1C)C2=O)c1ccc(/N=N/c2ccc([N+](=O)[O-])cc2C#N)cc1` (repeat unit) it is 216.00 °C. In the case of `*C(=O)OCCN(CCOC(=O)c1ccc2c(c1)C(=O)N(c1c(C)cc(Cc3cc(C)c(N4C(=O)c5ccc(*)cc5C4=O)c(C)c3)cc1C)C2=O)c1ccc(/N=N/c2ccc([N+](=O)[O-])cc2[N+](=O)[O-])cc1` (repeat unit) it was 176.00 °C. The figure for `*C(=O)c1ccc2c(c1)C(=O)N(c1ccc(Cc3ccc(N4C(=O)c5ccc(*)cc5C4=O)c(C(C)(C)C)c3)cc1C(C)(C)C)C2=O` (repeat unit) is 213.00 °C.

`*C(=O)c1ccc2c(c1)C(=O)N(c1ccc(OCC(C)(C)COc3ccc(N4C(=O)c5ccc(*)cc5C4=O)cc3)cc1)C2=O` (repeat unit) showed a glass transition temperature of 234.00 °C. The figure for `*C(=O)c1ccc2c(c1)C(=O)N(c1ccc(Oc3c(C)cc(Cc4cc(C)c(Oc5ccc(N6C(=O)c7ccc(*)cc7C6=O)cc5)c(C)c4)cc3C)cc1)C2=O` (repeat unit) is 303.00 °C; for `*CC(=O)NCCCCCCNC(=O)CS*` (repeat unit) it is -7.00 °C; for `*CC(=O)Nc1ccc(Cc2ccc(NC(=O)COc3ccc4ccccc4c3Sc3c(O*)ccc4ccccc34)cc2)cc1` (repeat unit) it is 241.00 °C. The figure for `*CC(=O)Nc1cccc(NC(=O)COc2ccc3ccccc3c2Sc2c(O*)ccc3ccccc23)c1` (repeat unit) is 254.00 °C. For the compound `*CC(CO)(CCl)COc1ccc(C(c2ccc(O*)cc2)(C(F)(F)F)C(F)(F)F)cc1` (repeat unit), the glass transition temperature came out at 107.00 °C. Consider `*CC(CO*)(CS(=O)(=O)CCCCC)CS(=O)(=O)CCCCC` (repeat unit), for which the glass transition temperature was determined as 56.00 °C.

With `*CC(CO*)(CSC(C)C)CSC(C)C` (repeat unit), the glass transition temperature was -9.00 °C. The figure for `*CC(COc1ccc(C(C)(C)c2ccc(O*)cc2)cc1)OC(=O)CC` (repeat unit) is 60.00 °C. In the case of `*CC(COc1ccc(O*)cc1)OC(C)=O` (repeat unit) it was 49.00 °C; in that of `*CC(C[N-][N+]#N)(C[N-][N+]#N)CO*` (repeat unit), -30.00 °C; in that of `*CC(F)(F)C(F)(F)C(F)(F)COC(=O)c1cccc(C(=O)O*)c1OCCCCC` (repeat unit), 17.00 °C. In the case of `*CC(O)COc1ccc(O*)cc1` (repeat unit) it was 60.00 °C; in that of `*CC(O)COc1cccc(O*)c1` (repeat unit), 65.00 °C; in that of `*CCCCCCCCCCCCCCCCCCNC(=O)Cc1ccc(CC(=O)N*)cc1` (repeat unit), 78.00 °C. In turn, `*CCCCCCCCCCCOC(=O)c1cc(OCCCCCCCCCCOc2ccc(/N=N/c3ccc(OC)cc3)cc2)cc(C(=O)OCCCCCCCCCCCOc2ccc(-c3ccc(O*)cc3)cc2)c1` (repeat unit) returned a glass transition temperature of 53.00 °C. In the case of `*CCCCCCOC(=O)C(CCCCCCCCCCP(=O)(OCC)OCC)C(=O)OCCCCCCOc1ccc(-n2on2-c2ccc(O*)cc2)cc1` (repeat unit) it was 9.00 °C.

Compound `*CCCCCCOC(=O)C(CCCCCCP(=O)(OCC)OCC)C(=O)OCCCCCCOc1ccc(-n2on2-c2ccc(O*)cc2)cc1` (repeat unit) gave a glass transition temperature of 9.00 °C. In the case of `*CCCCCCOC(=O)C(CCCCCP(=O)(OCC)OCC)C(=O)OCCCCCCOc1ccc(-n2on2-c2ccc(O*)cc2)cc1` (repeat unit) it was 7.00 °C; in that of `*CCOCC(CCl)O*` (repeat unit), -40.00 °C; in that of `*CCOCO*` (repeat unit), -64.00 °C.

`*CCSCc1ccc(Cc2ccc(CSCCOC(=O)CSCc3ccc(Cc4ccc(CSCC(=O)O*)cc4)cc3)cc2)cc1` (repeat unit) displayed a glass transition temperature of 14.00 °C. In the case of `*CCSSCCO*` (repeat unit) it was -53.00 °C. In the case of `*CCSSSSCCO*` (repeat unit) it was -40.00 °C; in that of `*C[Si](*)(C)CCCOCCOCCOC` (repeat unit), -73.30 °C. With `*C[Si](*)(C)c1ccccc1` (repeat unit), the glass transition temperature came to 28.00 °C. In the case of `*C[Si](*)(CCCC)CCCC` (repeat unit) it was -30.00 °C; in that of `*C[Si](*)(CCCCC)CCCCC` (repeat unit), -55.00 °C; in that of `*Cc1cc(C(C)(C)C)cc(*)c1O` (repeat unit), 50.00 °C. The compound `*Cc1cc2cc(C(=O)Nc3ccc(S(=O)(=O)c4ccc(NC(=O)c5cc6cc(*)c(OC(=O)COc7ccc8ccc(=O)oc8c7)cc6oc5=O)cc4)cc3)c(=O)oc2cc1OC(=O)COc1ccc2ccc(=O)oc2c1` (repeat unit) yielded a glass transition temperature of 233.00 °C. The figure for `*Cc1ccc(CO*)cc1` (repeat unit) is 217.00 °C; for `*Cc1ccc(CSS*)cc1` (repeat unit) it is 23.00 °C; for `*Cc1ccc(CSSSS*)cc1` (repeat unit) it is 3.00 °C. In the case of `*Cc1cccc(C[n+]2ccc(-c3cc[n+](*)cc3)cc2)c1` (repeat unit) it was 128.00 °C; in that of `*Nc1ccc(CC(C)(C)NC(=O)CCC(*)=O)cc1` (repeat unit), 158.00 °C; in that of `*Nc1ccc(CC(C)(C)NC(=O)CCCCCCCCC(*)=O)cc1` (repeat unit), 92.00 °C. The figure for `*OC(COC(=O)c1ccc(C(*)=O)c(OC)c1)COc1ccc(/N=N/c2ccc(C#N)cc2)cc1` (repeat unit) is 120.00 °C; for `*OC(F)(F)COC(=O)c1cc(OCCCCC)cc(C(=O)OCC(*)(F)F)c1` (repeat unit) it is 14.00 °C.

Regarding `*Oc1ccc(CC(NC(=O)CCc2ccc(OC(=O)CCC(*)=O)cc2)C(=O)OCC)cc1` (repeat unit), the glass transition temperature worked out at 78.00 °C.

For `*Oc1ccc(CC(NC(=O)CCc2ccc(OC(=O)CCC(*)=O)cc2)C(=O)OCCCCCCCC)cc1` (repeat unit), the glass transition temperature was found to be 48.00 °C. In the case of `*Oc1ccc(CC(NC(=O)CCc2ccc(OC(=O)CCC(*)=O)cc2)C(=O)OCCCCCCCCCCCC)cc1` (repeat unit) it was 40.00 °C; in that of `*Oc1ccc(CC(NC(=O)Cc2ccc(OC(=O)CCC(*)=O)cc2)C(=O)OCCCCCC)cc1` (repeat unit), 59.00 °C. In the case of `*c1c(C)cc(-c2cc(C)c(N3C(=O)c4ccc(Oc5c(C)cc(Cc6cc(C)c(Oc7ccc8c(c7)C(=O)N(*)C8=O)c(C)c6)cc5C)cc4C3=O)c(C)c2)cc1C` (repeat unit) it was 420.00 °C; in that of `*c1c(C)cc(C)c(N2C(=O)c3cccc(Oc4c(C)cc(Cc5cc(C)c(Oc6cccc7c6C(=O)N(*)C7=O)c(C)c5)cc4C)c3C2=O)c1C` (repeat unit), 287.00 °C. In the case of `*c1c(C)cc(Cc2cc(C)c(N3C(=O)c4ccc(Oc5cc6ccccc6cc5Oc5ccc6c(c5)C(=O)N(*)C6=O)cc4C3=O)c(C)c2)cc1C` (repeat unit) it was 265.00 °C; in that of `*c1c(C)cc(Cc2cc(C)c(N3C(=O)c4ccc(Oc5cccc6c(Oc7ccc8c(c7)C(=O)N(*)C8=O)cccc56)cc4C3=O)c(C)c2)cc1C` (repeat unit), 281.00 °C; in that of `*c1ccc(CC(=O)Nc2ccc(-c3ccc(NC(=O)Cc4ccc(-c5sc(*)c(-c6ccccc6)c5-c5ccccc5)cc4)cc3)cc2)cc1` (repeat unit), 272.00 °C.

For `*c1ccc(CC(=O)Nc2ccc(NC(=O)Cc3ccc(-c4sc(*)c(-c5ccccc5)c4-c4ccccc4)cc3)cc2)cc1` (repeat unit), the glass transition temperature came to 251.00 °C. Compound `*c1ccc(CC(=O)Nc2ccc(S(=O)(=O)c3ccc(NC(=O)Cc4ccc(-c5sc(*)c(-c6ccccc6)c5-c5ccccc5)cc4)cc3)cc2)cc1` (repeat unit) gave a glass transition temperature of 252.00 °C.

In turn, `*c1ccc(Cc2ccc(N3C(=O)c4ccc(Oc5ccc(Oc6ccc7c(c6)C(=O)N(*)C7=O)cc5)cc4C3=O)c(OC)c2)cc1OC` (repeat unit) registered a glass transition temperature of 269.00 °C. The figure for `*c1ccc(Cc2ccc(N3C(=O)c4ccc(Oc5ccc6c(c5)C(=O)N(*)C6=O)cc4C3=O)c(C(C)(C)C)c2)cc1C(C)(C)C` (repeat unit) is 216.00 °C; for `*c1ccc(Oc2c(C)cc(Cc3cc(C)c(Oc4ccc(-n5c(=O)c6cc7c(=O)n(*)c(=O)c7cc6c5=O)cc4)c(C)c3)cc2C)cc1` (repeat unit) it is 299.50 °C; for `*c1ccc(Oc2ccc(N3C(=O)c4cccc(Oc5c(C)cc(Cc6cc(C)c(Oc7cccc8c7C(=O)N(*)C8=O)c(C)c6)cc5C)c4C3=O)cc2)cc1` (repeat unit) it is 270.00 °C. The compound `*c1ccc2c(c1)C(=O)N(c1c(CC)cc(Cc3cc(CC)c(N4C(=O)c5ccc(C(*)(C(F)(F)F)C(F)(F)F)cc5C4=O)c(CC)c3)cc1CC)C2=O` (repeat unit) gave a glass transition temperature of 266.00 °C. The figure for `*c1ccc2c(c1)C(=O)N(c1ccc(OC(C)COc3ccc(N4C(=O)c5ccc(C(*)(C(F)(F)F)C(F)(F)F)cc5C4=O)cc3)cc1)C2=O` (repeat unit) is 234.00 °C; for `*c1ccc2c(c1)C(=O)N(c1ccc(OC(CCC)COc3ccc(N4C(=O)c5ccc(C(*)(C(F)(F)F)C(F)(F)F)cc5C4=O)cc3)cc1)C2=O` (repeat unit) it is 204.00 °C.
